According to paper PMC7237647, “Synthesis, in vitro and in vivo evaluation of ^11C-O-methylated arylpiperazines as potential serotonin 1A (5-HT1A) receptor antagonist radiotracers” (EJNMMI Radiopharmacy and Chemistry, 2020):

What was measured:
NOP = molecular target: T1, NOP (Homo sapiens, UniProt P41146); test: NIMH-PDSP radioligand binding assay, NOP
T1 construct: NIMH-PDSP
Method: (§1) . Cross selectivity for biogenic amines, neurotransmitter receptors, and transporters were determined by radioligand binding assays through NIMH- PDSP using validated and established protocols ([NIMH-PDSP Assay Protocol Book Version III, March 2018]).

5-HT1B = molecular target: T2, 5-HT1B (Homo sapiens, UniProt P28222); test: NIMH-PDSP radioligand binding assay, 5-HT1B
T2 construct: NIMH-PDSP
T2 sequence (P28222 whole entry, species assumed): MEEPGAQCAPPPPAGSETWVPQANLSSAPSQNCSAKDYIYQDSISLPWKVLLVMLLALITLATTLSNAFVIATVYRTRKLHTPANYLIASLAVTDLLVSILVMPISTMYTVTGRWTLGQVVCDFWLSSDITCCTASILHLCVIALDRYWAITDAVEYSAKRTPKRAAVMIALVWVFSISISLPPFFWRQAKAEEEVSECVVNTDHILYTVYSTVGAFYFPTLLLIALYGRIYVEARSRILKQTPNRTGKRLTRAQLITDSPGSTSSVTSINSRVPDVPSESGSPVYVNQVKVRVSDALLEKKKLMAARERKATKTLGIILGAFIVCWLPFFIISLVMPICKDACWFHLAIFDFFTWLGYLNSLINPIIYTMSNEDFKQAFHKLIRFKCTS
Method: as §1

5-HT1E = molecular target: T3, 5-HT1E (Homo sapiens, UniProt P28566); test: NIMH-PDSP radioligand binding assay, 5-HT1E
T3 construct: NIMH-PDSP
T3 sequence (P28566 whole entry, species assumed): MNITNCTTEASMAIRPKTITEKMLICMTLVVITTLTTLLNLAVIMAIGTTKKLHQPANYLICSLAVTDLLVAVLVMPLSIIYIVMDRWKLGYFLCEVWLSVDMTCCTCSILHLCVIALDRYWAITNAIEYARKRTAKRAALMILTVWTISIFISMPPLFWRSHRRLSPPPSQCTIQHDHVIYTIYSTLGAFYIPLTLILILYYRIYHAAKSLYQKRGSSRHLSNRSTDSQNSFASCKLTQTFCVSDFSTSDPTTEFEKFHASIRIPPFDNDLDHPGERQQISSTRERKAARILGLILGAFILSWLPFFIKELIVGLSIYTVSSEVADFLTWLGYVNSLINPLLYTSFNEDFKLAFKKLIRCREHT
Method: as §1

5-HT2B = molecular target: T4, 5-HT2B (Homo sapiens, UniProt P41595); test: NIMH-PDSP radioligand binding assay, 5-HT2B
T4 construct: NIMH-PDSP
T4 sequence (P41595 whole entry, species assumed): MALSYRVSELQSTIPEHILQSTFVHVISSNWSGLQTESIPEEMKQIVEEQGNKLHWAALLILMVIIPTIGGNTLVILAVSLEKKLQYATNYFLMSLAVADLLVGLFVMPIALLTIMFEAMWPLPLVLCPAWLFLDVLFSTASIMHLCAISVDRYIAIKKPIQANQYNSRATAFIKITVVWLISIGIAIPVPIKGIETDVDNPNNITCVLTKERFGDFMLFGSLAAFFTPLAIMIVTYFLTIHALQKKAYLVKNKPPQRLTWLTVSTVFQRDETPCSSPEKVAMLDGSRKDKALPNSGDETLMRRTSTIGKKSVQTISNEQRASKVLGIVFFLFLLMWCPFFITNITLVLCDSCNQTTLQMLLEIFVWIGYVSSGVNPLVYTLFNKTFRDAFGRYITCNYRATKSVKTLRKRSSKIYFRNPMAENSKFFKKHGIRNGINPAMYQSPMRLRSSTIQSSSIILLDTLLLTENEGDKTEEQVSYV
Method: as §1

SERT = SERT (Homo sapiens, UniProt P31645); test: NIMH-PDSP radioligand binding assay, SERT
Method: as §1

D2R = molecular target: T5, D2R (Homo sapiens, UniProt P14416); test: NIMH-PDSP radioligand binding assay, D2R
T5 construct: NIMH-PDSP
T5 sequence (P14416 whole entry): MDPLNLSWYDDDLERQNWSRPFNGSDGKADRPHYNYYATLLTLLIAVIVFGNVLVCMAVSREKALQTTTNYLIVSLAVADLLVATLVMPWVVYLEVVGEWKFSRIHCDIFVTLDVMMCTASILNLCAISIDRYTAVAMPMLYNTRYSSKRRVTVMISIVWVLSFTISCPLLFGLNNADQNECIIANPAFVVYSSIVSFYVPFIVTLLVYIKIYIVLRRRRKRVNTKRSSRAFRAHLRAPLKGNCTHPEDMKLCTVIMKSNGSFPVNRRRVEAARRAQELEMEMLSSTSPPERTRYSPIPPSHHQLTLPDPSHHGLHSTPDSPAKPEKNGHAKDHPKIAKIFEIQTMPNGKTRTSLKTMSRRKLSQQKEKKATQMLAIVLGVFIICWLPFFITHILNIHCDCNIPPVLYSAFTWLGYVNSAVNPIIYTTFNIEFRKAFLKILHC

D4R = molecular target: T6, D4R (Homo sapiens, UniProt P21917); test: NIMH-PDSP radioligand binding assay, D4R
T6 construct: NIMH-PDSP
T6 sequence (P21917 1-419): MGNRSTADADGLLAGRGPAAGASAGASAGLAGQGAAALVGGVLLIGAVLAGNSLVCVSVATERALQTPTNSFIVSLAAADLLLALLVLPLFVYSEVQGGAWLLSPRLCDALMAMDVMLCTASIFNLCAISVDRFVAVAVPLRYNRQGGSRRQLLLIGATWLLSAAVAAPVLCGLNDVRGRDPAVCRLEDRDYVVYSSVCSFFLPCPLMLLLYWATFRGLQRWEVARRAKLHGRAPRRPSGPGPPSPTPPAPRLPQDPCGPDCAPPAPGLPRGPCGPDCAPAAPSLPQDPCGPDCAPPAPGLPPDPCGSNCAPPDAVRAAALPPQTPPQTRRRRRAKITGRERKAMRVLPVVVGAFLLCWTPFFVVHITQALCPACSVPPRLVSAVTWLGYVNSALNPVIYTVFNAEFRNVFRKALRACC
Method: as §1

Muscarinic receptors = test: NIMH-PDSP radioligand binding assay, Muscarinic receptors
Adenosine receptors = test: NIMH-PDSP radioligand binding assay, Adenosine receptors
5-HT1A receptor = molecular target: T7, 5-HT1A receptor (Homo sapiens, UniProt P08908); test: Competition binding with [^3H]WAY100635 at 5-HT1A receptors (NIMH-PDSP); conditions: for Ki: competition with [^3H]WAY100635, 12 concentrations (10 μM to 1 pM), triplicate, cells expressing 5-HT1A receptor; for Binding affinity ratios of 5-HT1A and α1-adrenergic receptors: in vitro Ki ratio
T7 sequence (P08908 1-422): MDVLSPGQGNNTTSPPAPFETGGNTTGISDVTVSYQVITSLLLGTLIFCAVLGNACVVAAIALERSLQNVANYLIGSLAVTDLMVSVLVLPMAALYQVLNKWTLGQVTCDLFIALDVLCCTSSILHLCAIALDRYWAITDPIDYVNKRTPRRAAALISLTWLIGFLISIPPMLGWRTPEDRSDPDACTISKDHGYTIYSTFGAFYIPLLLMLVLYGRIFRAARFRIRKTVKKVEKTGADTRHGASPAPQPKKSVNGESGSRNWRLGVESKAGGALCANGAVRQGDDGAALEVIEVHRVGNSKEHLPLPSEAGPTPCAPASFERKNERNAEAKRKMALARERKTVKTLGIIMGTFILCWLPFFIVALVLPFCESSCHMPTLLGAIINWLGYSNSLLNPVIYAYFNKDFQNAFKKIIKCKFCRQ

NMDA = test: NIMH-PDSP radioligand binding assay, NMDA
5-HT5a = molecular target: T8, 5-HT5a (Homo sapiens, UniProt P47898); test: NIMH-PDSP radioligand binding assay, 5-HT5a
T8 construct: NIMH-PDSP
Method: as §1

Alpha2B = molecular target: T9, Alpha2B (Homo sapiens, UniProt P18089); test: NIMH-PDSP radioligand binding assay, Alpha2B
T9 construct: NIMH-PDSP
T9 sequence (P18089 whole entry): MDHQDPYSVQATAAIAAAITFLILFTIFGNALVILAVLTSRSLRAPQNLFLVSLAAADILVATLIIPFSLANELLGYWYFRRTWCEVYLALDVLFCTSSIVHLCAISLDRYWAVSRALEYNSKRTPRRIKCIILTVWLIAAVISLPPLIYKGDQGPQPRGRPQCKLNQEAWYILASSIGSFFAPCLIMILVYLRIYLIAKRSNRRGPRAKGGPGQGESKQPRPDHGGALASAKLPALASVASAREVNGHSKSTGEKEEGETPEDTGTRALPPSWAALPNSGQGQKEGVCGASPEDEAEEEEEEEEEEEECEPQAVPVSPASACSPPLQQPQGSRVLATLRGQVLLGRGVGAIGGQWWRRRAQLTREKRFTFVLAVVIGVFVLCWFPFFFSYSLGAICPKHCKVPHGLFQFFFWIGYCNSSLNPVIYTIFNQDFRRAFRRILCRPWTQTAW

Alpha2C = molecular target: T10, Alpha2C (Homo sapiens, UniProt P18825); test: NIMH-PDSP radioligand binding assay, Alpha2C
T10 construct: NIMH-PDSP
T10 sequence (P18825 whole entry): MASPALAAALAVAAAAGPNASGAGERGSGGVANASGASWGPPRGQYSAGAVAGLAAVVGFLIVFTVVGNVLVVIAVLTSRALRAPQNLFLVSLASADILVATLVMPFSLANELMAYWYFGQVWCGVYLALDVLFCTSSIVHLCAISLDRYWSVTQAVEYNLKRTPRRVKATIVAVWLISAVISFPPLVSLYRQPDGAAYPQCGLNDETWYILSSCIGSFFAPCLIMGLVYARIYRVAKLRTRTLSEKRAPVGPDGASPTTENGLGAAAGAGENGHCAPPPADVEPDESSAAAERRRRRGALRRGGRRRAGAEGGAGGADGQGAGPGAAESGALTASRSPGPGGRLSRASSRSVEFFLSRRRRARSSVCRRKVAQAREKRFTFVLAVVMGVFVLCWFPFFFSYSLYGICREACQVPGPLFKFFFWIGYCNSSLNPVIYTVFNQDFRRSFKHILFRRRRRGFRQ

5-HT4 = molecular target: T11, 5-HT4 (Homo sapiens, UniProt Q13639); test: NIMH-PDSP radioligand binding assay, 5-HT4
T11 construct: NIMH-PDSP
T11 sequence (Q13639 whole entry, species assumed): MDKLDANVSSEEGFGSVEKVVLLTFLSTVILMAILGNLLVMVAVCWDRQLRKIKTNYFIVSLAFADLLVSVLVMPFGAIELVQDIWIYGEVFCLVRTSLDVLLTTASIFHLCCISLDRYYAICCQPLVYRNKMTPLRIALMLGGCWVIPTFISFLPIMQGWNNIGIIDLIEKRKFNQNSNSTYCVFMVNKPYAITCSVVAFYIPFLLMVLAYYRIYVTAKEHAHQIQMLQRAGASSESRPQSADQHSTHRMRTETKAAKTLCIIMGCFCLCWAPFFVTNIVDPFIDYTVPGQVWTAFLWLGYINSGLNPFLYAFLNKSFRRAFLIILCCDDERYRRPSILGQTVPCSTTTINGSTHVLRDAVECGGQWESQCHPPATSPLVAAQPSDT
Method: as §1

5-HT2A [1] = molecular target: T12, 5-HT2A (Homo sapiens, UniProt P28223); test: NIMH-PDSP radioligand binding assay, 5-HT2A
T12 construct: NIMH-PDSP
T12 sequence (P28223 whole entry, species assumed): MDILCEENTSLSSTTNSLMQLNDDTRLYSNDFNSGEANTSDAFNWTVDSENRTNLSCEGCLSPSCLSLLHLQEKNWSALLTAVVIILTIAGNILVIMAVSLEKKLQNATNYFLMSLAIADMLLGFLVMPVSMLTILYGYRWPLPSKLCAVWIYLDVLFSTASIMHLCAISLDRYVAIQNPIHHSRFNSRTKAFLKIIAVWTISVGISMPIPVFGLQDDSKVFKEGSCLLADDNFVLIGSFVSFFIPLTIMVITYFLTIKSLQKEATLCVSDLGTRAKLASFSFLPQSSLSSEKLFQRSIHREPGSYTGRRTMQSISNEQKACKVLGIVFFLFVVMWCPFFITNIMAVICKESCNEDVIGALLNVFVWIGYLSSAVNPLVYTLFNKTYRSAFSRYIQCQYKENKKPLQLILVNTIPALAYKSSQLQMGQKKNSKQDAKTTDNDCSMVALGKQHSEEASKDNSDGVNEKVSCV

Beta Receptors = test: NIMH-PDSP radioligand binding assay, Beta Receptors
H1-H4 = test: NIMH-PDSP radioligand binding assay, H1-H4
D3R = molecular target: T13, D3R (Homo sapiens, UniProt P35462); test: NIMH-PDSP radioligand binding assay, D3R
T13 construct: NIMH-PDSP
Method: as §1

AMPA = test: NIMH-PDSP radioligand binding assay, AMPA
5-HT2A [2] = molecular target: T12, 5-HT2A; design: method as in ref Fiorino et al. [2012]; Fiorino et al. [2016]; Fiorino et al. [2017]; conditions: previous preliminary pharmacological screening; ref Fiorino et al. [2012]; Fiorino et al. [2016]; Fiorino et al. [2017]; cited from earlier work
Alpha1A = molecular target: T14, Alpha1A (Homo sapiens, UniProt P35348); test: NIMH-PDSP radioligand binding assay, Alpha1A; conditions: text b29 calls it α1-adrenergic receptors
T14 construct: NIMH-PDSP
T14 sequence (P35348 whole entry): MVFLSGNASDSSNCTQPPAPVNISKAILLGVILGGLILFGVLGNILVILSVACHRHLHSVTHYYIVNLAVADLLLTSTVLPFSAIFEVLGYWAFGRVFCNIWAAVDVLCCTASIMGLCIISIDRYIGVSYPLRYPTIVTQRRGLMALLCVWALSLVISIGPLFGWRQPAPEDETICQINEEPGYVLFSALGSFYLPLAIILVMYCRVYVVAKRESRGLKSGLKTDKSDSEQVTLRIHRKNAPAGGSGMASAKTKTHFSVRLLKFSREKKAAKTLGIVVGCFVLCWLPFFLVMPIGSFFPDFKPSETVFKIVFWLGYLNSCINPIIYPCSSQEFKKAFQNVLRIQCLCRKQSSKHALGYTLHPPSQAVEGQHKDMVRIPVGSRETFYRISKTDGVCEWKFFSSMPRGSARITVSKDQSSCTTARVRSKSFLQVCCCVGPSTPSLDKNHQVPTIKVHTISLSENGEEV

5-HT2C = molecular target: T15, 5-HT2C (Homo sapiens, UniProt P28335); test: NIMH-PDSP radioligand binding assay, 5-HT2C
T15 construct: NIMH-PDSP
T15 sequence (P28335 33-458): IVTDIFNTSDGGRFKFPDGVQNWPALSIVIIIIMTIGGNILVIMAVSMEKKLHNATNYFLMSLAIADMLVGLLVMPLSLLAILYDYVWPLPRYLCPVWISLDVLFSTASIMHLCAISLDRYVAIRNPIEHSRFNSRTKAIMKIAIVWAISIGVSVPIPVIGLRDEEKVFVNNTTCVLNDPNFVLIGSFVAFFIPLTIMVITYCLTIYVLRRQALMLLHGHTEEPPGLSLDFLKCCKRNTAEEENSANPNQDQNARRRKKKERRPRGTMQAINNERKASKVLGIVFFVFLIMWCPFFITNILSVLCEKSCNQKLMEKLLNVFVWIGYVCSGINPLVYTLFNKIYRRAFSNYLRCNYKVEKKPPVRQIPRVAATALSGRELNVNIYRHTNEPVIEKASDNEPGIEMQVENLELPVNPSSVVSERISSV

Alpha1D = molecular target: T16, Alpha1D (Homo sapiens, UniProt P25100); test: NIMH-PDSP radioligand binding assay, Alpha1D
T16 construct: NIMH-PDSP

5-HT7R = molecular target: T17, 5-HT7R (Homo sapiens, UniProt P34969); test: NIMH-PDSP radioligand binding assay, 5-HT7R
T17 construct: NIMH-PDSP
T17 sequence (P34969 whole entry): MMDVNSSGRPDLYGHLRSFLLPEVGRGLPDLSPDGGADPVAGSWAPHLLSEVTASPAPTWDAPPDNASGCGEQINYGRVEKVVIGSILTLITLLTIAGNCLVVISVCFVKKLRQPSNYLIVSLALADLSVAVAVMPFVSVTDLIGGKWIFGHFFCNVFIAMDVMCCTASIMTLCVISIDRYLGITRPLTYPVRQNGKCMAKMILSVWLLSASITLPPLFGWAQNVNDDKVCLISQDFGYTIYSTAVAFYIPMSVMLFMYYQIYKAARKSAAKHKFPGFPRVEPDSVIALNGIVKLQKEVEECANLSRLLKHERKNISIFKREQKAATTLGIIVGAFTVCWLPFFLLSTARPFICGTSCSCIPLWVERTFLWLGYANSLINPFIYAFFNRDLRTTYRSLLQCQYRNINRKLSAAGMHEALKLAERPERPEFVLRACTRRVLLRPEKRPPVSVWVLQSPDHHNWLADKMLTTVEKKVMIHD

5-HT6 = molecular target: T18, 5-HT6 (Homo sapiens, UniProt P50406); test: NIMH-PDSP radioligand binding assay, 5-HT6
T18 construct: NIMH-PDSP
Method: as §1

T1 sequence (P41146 whole entry): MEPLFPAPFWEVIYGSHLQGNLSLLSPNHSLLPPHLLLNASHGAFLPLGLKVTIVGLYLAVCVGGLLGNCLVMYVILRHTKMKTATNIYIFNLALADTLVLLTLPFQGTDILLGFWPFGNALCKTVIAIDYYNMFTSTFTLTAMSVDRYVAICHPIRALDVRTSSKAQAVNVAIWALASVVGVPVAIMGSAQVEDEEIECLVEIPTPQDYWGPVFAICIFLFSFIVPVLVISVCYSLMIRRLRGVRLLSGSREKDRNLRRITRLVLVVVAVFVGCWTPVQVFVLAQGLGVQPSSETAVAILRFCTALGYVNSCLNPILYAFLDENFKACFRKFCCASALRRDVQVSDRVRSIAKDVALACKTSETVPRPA

| SMILES | Ki (NOP) | Ki (5-HT1B) | Ki (5-HT1E) | Ki (5-HT2B) | Ki (SERT) | Ki (D2R) | Ki (D4R) | Ki (Muscarinic receptors) | Ki (Adenosine receptors) | Ki (5-HT1A receptor) | Binding affinity ratios of 5-HT1A and α1-adrenergic receptors (5-HT1A receptor) | Ki (NMDA) | Ki (5-HT5a) | Ki (Alpha2B) | Ki (Alpha2C) | Ki (5-HT4) | Ki (5-HT2A [1]) | Ki (Beta Receptors) | Ki (H1-H4) | Ki (D3R) | further results |
| --- | --- | --- | --- | --- | --- | --- | --- | --- | --- | --- | --- | --- | --- | --- | --- | --- | --- | --- | --- | --- | --- |
| COc1ccccc1N1CCN(CCNC(=O)c2ccccn2)CC1 [Compound 2] | > 10 µM | > 10 µM | > 10 µM | 0.516 µM | > 10 µM | > 10 µM | 0.088 µM | > 10 µM | > 10 µM | 0.0077 µM | ~ 6 | > 10 µM | > 10 µM | > 10 µM | > 10 µM | > 10 µM | > 10 µM | > 10 µM | > 10 µM | 2.55 µM | Ki (AMPA): > 10 µM; affinity to 5-HT2A (5-HT2A [2]): high affinities; Ki (Alpha1A): 0.046 µM; Ki (5-HT2C): > 10 µM; Ki (Alpha1D): 0.053 µM; Ki (5-HT7R): 0.83 µM; Ki (5-HT6): > 10 µM |
| COc1ccccc1N1CCN(CCCN/C(=N\C#N)c2ccccn2)CC1 [Compound 1] | > 10 µM | > 10 µM | > 10 µM | 0.403 µM | > 10 µM | 0.777 µM | 0.137 µM | > 10 µM | > 10 µM | 0.022 µM | ~ 6 | > 10 µM | > 10 µM | 0.67 µM | 0.835 µM | > 10 µM | > 10 µM | > 10 µM | > 10 µM | 0.369 µM | Ki (AMPA): > 10 µM; affinity to 5-HT2A (5-HT2A [2]): high affinities; Ki (Alpha1A): 0.129 µM; Ki (5-HT2C): > 10 µM; Ki (Alpha1D): 0.213 µM; Ki (5-HT7R): 0.076 µM; Ki (5-HT6): > 10 µM |
